The values below come from patent publication US8481584B2, “1H-thieno[2,3-c]pyrazole derivatives useful as kinase inhibitors” (Nerviano Medical Sciences S.R.L., priority 2004, dated 2013).

The target in experiment [1] is T1, Aurora-2 (Homo sapiens, UniProt O14965).
T1 sequence (O14965 1-403): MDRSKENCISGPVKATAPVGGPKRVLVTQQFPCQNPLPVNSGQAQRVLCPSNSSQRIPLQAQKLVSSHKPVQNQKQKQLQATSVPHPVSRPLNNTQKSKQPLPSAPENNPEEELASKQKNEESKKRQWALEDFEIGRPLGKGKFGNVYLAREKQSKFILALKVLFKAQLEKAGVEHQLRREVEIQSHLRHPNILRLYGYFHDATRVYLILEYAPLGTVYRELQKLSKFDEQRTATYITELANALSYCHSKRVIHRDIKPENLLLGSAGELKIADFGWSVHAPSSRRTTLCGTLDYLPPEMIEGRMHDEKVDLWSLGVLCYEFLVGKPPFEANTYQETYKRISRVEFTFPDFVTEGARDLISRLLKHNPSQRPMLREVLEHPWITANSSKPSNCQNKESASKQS
In words: Inhibition assay of Aurora-2 activity (SPA technology). It counts as biochemical. The protocol: The inhibiting activity and the potency of selected compounds is determined through a method of assay based on the use of the SPA technology (Amersham Pharmacia Biotech).
The assay consists of the transfer of radioactivity labelled phosphate moiety by the kinase to a biotinylated substrate. The resulting 33P-labelled biotinylated product is allowed to bind to streptavidin-coated SPA beads (biotin capacity 130 pmol/mg), and light emitted was measured in a scintillation counter.
Inhibition Assay of Aurora-2 Activity
After 60 minutes at room temperature incubation, reaction was stopped and biotinylated peptide captured by adding 100 μl of bead suspension.
Stratification: 100 μl of CsCl2 5 M were added to each well and let stand 4 hour before radioactivity was counted in the Top-Count instrument.
Experimental data were analyzed by the computer program GraphPad Prizm using the four parameter logistic equation: y=bottom+(top−bottom)/(1+10^((logIC50−x)*slope)) where x is the logarithm of the inhibitor concentration, y is the response; y starts at bottom and goes to top with a sigmoid shape.

Experiment [2] deals with human colon cancer cell line HCT-116. In words: In vitro cell proliferation assay. In kind it is cell-based. The settings on record: HCT-116, 72 hours of treatment, cell count, read-out: Cell Antiproliferation IC50. The protocol: The compounds of the invention were further tested, in vitro, to assess the anti-proliferative effect onto cell cultures.
In Vitro Cell Proliferation Assay
The human colon cancer cell line HCT-116 was seeded at 5000 cells/cm2 in 24 wells plate (Costar) using F12 medium (Gibco) supplemented with 10% FCS (EuroClone, Italy) 2 mM L-glutamine and 1% penicillin/streptomycin and maintained at 37° C., 5% CO2 and 96% relative humidity. The following day, plates were treated in duplicates with 5 ul of an appropriate dilution of compounds starting from a 10 mM stock in DMSO. Two untreated control wells were included in each plate. After 72 hours of treatment, medium was withdrawn and cells detached from each well using 0.5 mL of 0.05% (w/v) Trypsin, 0.02% (w/v) EDTA (Gibco). Samples were diluted with 9.5 mL of Isoton (Coulter) and counted using a Multisizer 3 cell counter (Beckman Coulter). Data were evaluated as percent of the control wells: % of CTR=(Treated−Blank)/(Control−Blank).
IC50 values were calculated by LSW/Data Analysis using Microsoft Excel sigmoidal curve fitting.

Where [3] appears, read: SPA assay, 10 μM ATP, 60 minutes at room temperature, read-out: Aurora-2 inhibition IC50.
Where [4] appears, read: screened according to the methods of the pharmacology section, read-out: IC50 values for Aurora-2 inhibition.

Where two headings read alike, the source gives them in different places.

`CC(C)(NC(=O)c1cc2c(NC(=O)c3ccc(N4CCOCC4)cc3)n[nH]c2s1)c1ccccc1` [Compound 1, N-(1-methyl-1-phenylethyl)-3-[(4-morpholin-4-ylbenzoyl)amino]-1H-thieno[2,3-c]pyrazole-5-carboxamide]: the IC50 in experiment [1] (setting [3]) is 5 nM; in experiment [1] (setting [4]) it was below 20 nM; in experiment [2] it was 6 nM.

For the compound `O=C(Nc1n[nH]c2sc(C(=O)NC3(c4ccccc4)CC3)cc12)c1ccc(N2CCOCC2)cc1` [Compound 2, 3-[(4-morpholin-4-ylbenzoyl)amino]-N-(1-phenylcyclopropyl)-1H-thieno[2,3-c]pyrazole-5-carboxamide], the values for the IC50 in experiment [1] (setting [3]), in experiment [1] (setting [4]) and in experiment [2] were 3 nM, below 20 nM and 23 nM, respectively.

For the compound `C[C@@H](NC(=O)c1cc2c(NC(=O)c3ccc(N4CCOCC4)cc3)n[nH]c2s1)c1ccc(F)cc1` [Compound 3, N-[(1R)-1-(4-fluorophenyl)ethyl]-3-[(4-morpholin-4-ylbenzoyl)amino]-1H-thieno[2,3-c]pyrazole-5-carboxamide], the IC50 in experiment [1] (setting [3]) is 6 nM; in experiment [1] (setting [4]) it was below 20 nM; in experiment [2], 35 nM.

With `O=C(Nc1n[nH]c2sc(C(=O)N[C@H](CN3CCCC3)c3ccccc3)cc12)c1ccc(N2CCOCC2)cc1` [Compound 5, 3-[(4-morpholin-4-ylbenzoyl)amino]-N-[(1S)-1-phenyl-2-pyrrolidin-1-ylethyl]-1H-thieno[2,3-c]pyrazole-5-carboxamide], the IC50 in experiment [1] (setting [3]) was 9 nM; in experiment [1] (setting [4]), below 20 nM; in experiment [2], 30 nM.

On to `CC(C)(NC(=O)c1cc2c(NC(=O)c3cccs3)n[nH]c2s1)c1ccccc1` [Compound 16, N-(1-methyl-1-phenylethyl)-3-[(thien-2-ylcarbonyl)amino]-1H-thieno[2,3-c]pyrazole-5-carboxamide], for which the values for the IC50 in experiment [1] (setting [3]), in experiment [1] (setting [4]) and in experiment [2] were 3 nM, below 20 nM and 56 nM, respectively.

On to `CN1CCN(c2ccc(C(=O)Nc3n[nH]c4sc(C(=O)NC(C)(C)c5ccccc5)cc34)cc2)CC1` [Compound 29, N-(1-methyl-1-phenylethyl)-3-{[4-(4-methylpiperazin-1-yl)benzoyl]amino}-1H-thieno[2,3-c]pyrazole-5-carboxamide], for which the IC50 in experiment [1] (setting [3]) is 1 nM; in experiment [1] (setting [4]), below 20 nM; in experiment [2], 2 nM.

With `C[C@@H](NC(=O)c1cc2c(NC(=O)c3ccc(N4CCN(C)CC4)cc3)n[nH]c2s1)c1ccccc1` [Compound 36, 3-{[4-(4-methylpiperazin-1-yl)benzoyl]amino}-N-[(1R)-1-phenylethyl]-1H-thieno[2,3-c]pyrazole-5-carboxamide], the IC50 in experiment [2] was 5 nM.

As to `C[C@](CN1CCOCC1)(NC(=O)c1cc2c(NC(=O)c3ccc(N4CCOCC4)cc3)n[nH]c2s1)c1ccccc1` [Compound 137, 3-(4-Morpholin-4-yl-benzoylamino)-1H-thieno[2,3-c]pyrazole-5-carboxylic acid ((S)-1-methyl-2-morpholin-4-yl-1-phenyl-ethyl)-amide], the IC50 in experiment [1] (setting [4]) was below 20 nM.

With `CC(C)(NC(=O)c1cc2c(NC(=O)c3ccc(N4CCOCC4)cc3)n[nH]c2s1)c1ccncc1` [Compound 138, 3-(4-Morpholin-4-yl-benzoylamino)-1H-thieno[2,3-c]pyrazole-5-carboxylic acid (1-methyl-1-pyridin-4-yl-ethyl)-amide], the IC50 in experiment [1] (setting [4]) was below 20 nM.

Regarding `CN1CCN(c2ccc(C(=O)Nc3n[nH]c4sc(C(=O)NC(C)(C)c5ccc(F)cc5)cc34)cc2)CC1` [Compound 139, 3-[4-(4-Methyl-piperazin-1-yl)-benzoylamino]-1H-thieno[2,3-c]pyrazole-5-carboxylic acid [1-(4-fluoro-phenyl)-1-methyl-ethyl]amide], the IC50 in experiment [1] (setting [4]) is below 20 nM.

For `COc1cccc(C(C)(C)NC(=O)c2cc3c(NC(=O)c4ccc(N5CCOCC5)cc4)n[nH]c3s2)c1` [Compound 140, 3-(4-Morpholin-4-yl-benzoylamino)-1H-thieno[2,3-c]pyrazole-5-carboxylic acid [1-(3-methoxy-phenyl)-1-methyl-ethyl]-amide], the IC50 in experiment [1] (setting [4]) was below 20 nM.

`CN1CCN(c2ccc(C(=O)Nc3n[nH]c4sc(C(=O)NC(C)(C)c5ccccc5F)cc34)cc2)CC1` [Compound 141, 3-[4-(4-Methyl-piperazin-1-yl)-benzoylamino]-1H-thieno[2,3-c]pyrazole-5-carboxylic acid[1-(2-fluoro-phenyl)-1-methyl-ethyl]amide]: the IC50 in experiment [1] (setting [4]) was below 20 nM.

As to `CN1CCN(c2ccc(C(=O)Nc3n[nH]c4sc(C(=O)NC(C)(C)c5cccc(F)c5)cc34)cc2)CC1` [Compound 142, 3-[4-(4-Methyl-piperazin-1-yl)-benzoylamino]-1H-thieno[2,3-c]pyrazole-5-carboxylic acid [1-(3-fluoro-phenyl)-1-methyl-ethyl]-amide], in experiment [1] (setting [4]), the IC50 was below 20 nM.

For the compound `CC(C)(NC(=O)c1cc2c(NC(=O)c3ccc(S(C)(=O)=O)cc3)n[nH]c2s1)c1ccccc1` [Compound 143, 3-(4-Methanesulfonyl-benzoylamino)-1H-thieno[2,3-c]pyrazole-5-carboxylic acid(1-methyl-1-phenyl-ethyl)-amide], in experiment [1] (setting [4]), the IC50 is below 20 nM.

On to `CC(C)(NC(=O)c1cc2c(NC(=O)c3ccc(N4CCS(=O)(=O)CC4)cc3)n[nH]c2s1)c1ccccc1` [Compound 144, 3-[4-(1,1-Dioxo-thiomorpholin-4-yl)-benzoylamino]-1H-thieno[2,3-c]pyrazole-5-carboxylic acid (1-methyl-1-phenyl-ethyl)-amide], for which the IC50 in experiment [1] (setting [4]) is below 20 nM.

In the case of `CC(C)(NC(=O)c1cc2c(NC(=O)c3ccc(N4CCOCC4)cc3)n[nH]c2s1)c1cccc(S(C)(=O)=O)c1` [Compound 147, 3-(4-Morpholin-4-yl-benzoylamino)-1H-thieno[2,3-c]pyrazole-5-carboxylic acid [1-(3-methanesulfonyl-phenyl)-1-methyl-ethyl]amide], the IC50 in experiment [1] (setting [4]) is below 20 nM.

`CC(C)(NC(=O)c1cc2c(NC(=O)c3ccc(N4CCOCC4)cc3)n[nH]c2s1)c1ccccc1F` [Compound 148, 3-(4-Morpholin-4-yl-benzoylamino)-1H-thieno[2,3-c]pyrazole-5-carboxylic acid [1-(2-fluoro-phenyl)-1-methyl-ethyl]-amide]: the IC50 in experiment [1] (setting [4]) is below 20 nM.

On to `CC(C)(NC(=O)c1cc2c(NC(=O)c3ccc(N4CCOCC4)cc3)n[nH]c2s1)c1cccc(F)c1` [Compound 149, 3-(4-Morpholin-4-yl-benzoylamino)-1H-thieno[2,3-c]pyrazole-5-carboxylic acid [1-(3-fluoro-phenyl)-1-methyl-ethyl]-amide], for which, in experiment [1] (setting [4]), the IC50 was below 20 nM.

`CC(C)(NC(=O)c1cc2c(NC(=O)c3ccc(N4CCOCC4)cc3)n[nH]c2s1)c1ccc(F)cc1` [Compound 150, 3-(4-Morpholin-4-yl-benzoylamino)-1H-thieno[2,3-c]pyrazole-5-carboxylic acid [1-(4-fluoro-phenyl)-1-methyl-ethyl]-amide]: the IC50 in experiment [1] (setting [4]) was below 20 nM.

`CC(C)(NC(=O)c1cc2c(NC(=O)c3cccs3)n[nH]c2s1)c1ccc(F)cc1` [Compound 151, 3-[(Thiophene-2-carbonyl)-amino]-1H-thieno[2,3-c]pyrazole-5-carboxylic acid [1-(4-fluoro-phenyl)-1-methyl-ethyl]-amide]: the IC50 in experiment [1] (setting [4]) is below 20 nM.

`O=C(Nc1n[nH]c2sc(C(=O)NCc3ccccc3)cc12)c1ccc(N2CCOCC2)cc1` [Reference compound, N-benzyl-3-[(4-morpholin-4-ylbenzoyl)amino]-1H-thieno[2,3-c]pyrazole-5-carboxamide, reference compound]: the values for the IC50 in experiment [1] (setting [3]) and in experiment [2] were 18 nM and 184 nM, respectively.
